Laboratory results as given in paper PMC3772838, “Preclinical Development of a Novel Class of CXCR4 Antagonist Impairing Solid Tumors Growth and Metastases” (PLoS ONE, 2013).
Bridges are numbered along the chain shown (N, C = ends). Where no end group is shown, it is not given here.

Assays:
P-ERK1/2 = experiment: CXCL12-induced p-ERK induction (immunoblotting); format: cell-based, human; details: PES43 cells serum-starved, CXCL12 100 ng/ml, after 5 minutes
Procedure: Cells were homogenized in lysis buffer (40 mM Hepes pH 7,5, 120 mM NaCl, 5 mM MgCl2, 1 mM EGTA, 0,5 mM EDTA, 1% Triton X-100) containing protease (Complete Tablets- EDTA-free, Roche) and phosphatase inhibitors (20 mM α-glycerol-3-phosphate, 2,5 mM Na-pyrophosphate). The following primary antibodies were used: anti-p-ERK (sc7383, Santa Cruz Biotechnology, Inc., Santa Cruz, CA, USA) and anti-ERK2 (sc 154G, Santa Cruz Biotechnology CA, USA). P-Erk induction was plotted as ratio P-Erk in the presence of CXCL12 (100 ng/ml)/P-Erk in serum free.
(§1) Experiments were conducted using PES43 cells. (A) Migration was assayed in 24-well Transwell chambers using inserts with 8-µm pore membrane. […] Migrated cells on the lower surface were fixed, stained with H&E and counted microscopically. The results are expressed as the migration index relative to migration in presence of BSA alone. […] Images were acquired with OKO Time Lapse. […] PES43 cells were serum-starved and incubated with CXCL12 (100 ng/ml) alone or in presence of AMD3100/peptides. Each peptide was tested in at least three different experiments. Double tailed T-Test was used for statistical analyses. Differences were considered significant at P<0.05 compared to control.
PES43 cell lines were serum starved for 16 hours. […] (TIF) Click here for additional data file.

[1] = tested on: SN12C-GFP human renal cancer cells; experiment: CXCL12-induced SN12C-GFP migration; format: cell-based; details: Figure 5
Procedure: (§2) Migration was assayed in 24-well Transwell chambers (Corning Inc., Corning, NY) using inserts with an 8-µm pore membrane. Membranes were precoated with collagen (human collagen type I/III) and fibronectin (20 µg/mL each). […] After 16 h incubation, cells on the upper surface of the filter were removed using a cotton wool swab; migration of cells in migration media alone was compared with migration in media containing CXCL12. The cells were counted in ten different fields (original magnification ×40). The migration index was defined as the ratio between migrating cells in the experimental group and migrated cells in the control group. For the wound closure assay, tested cells were allowed to reach confluence in six-well plates containing serum-depleted growth medium and scratched with pipette tips to make wounds. The wound closure was observed microscopically 6 hours post-wounding (OKO Time Lapse).
6 to 8-week-old female CD1 nude mice were injected subcutaneously with 2×10^6 pEGFP-SN12C cells pre-treated with 10 µM AMD3100 or 10 µM of each peptide. […] The experiments were repeated three times.

[2] = tested on: K7M2 murine osteosarcoma cells; experiment: K7M2 osteosarcoma lung metastases model; format: in vivo, Balb/c mice; details: cells pre-treated 30 min with 10 µM peptide; 10 mg/kg IP daily for 15 days
Procedure: (§3) All mice were obtained from Harlan (Bar Harbor, ME, USA) and their care was in accord with institutional guidelines. Twenty-five 6-8-week-old female C57BL/6 mice were inoculated into the tail vein with 5×10^5 B16–CXCR4 cells pre-treated for 30 minutes with peptide S (10 µM), peptide R (10 µM), peptide I (10 µM), or AMD3100 (10 µM). Six hours later intraperitoneal (IP) treatment started with AMD3100 (1.25 mg/kg) or each peptide (2 mg/kg) in sterile PBS once a day for 10 days. A week later the mice were sacrificed. The experiment was repeated three times. The lung metastases assay was also conducted with K7M2 murine osteosarcoma cells. Twenty-five 6-8-week-old female Balb/c mice were injected via tail vein with 2.5×10^5 K7M2 cells pre-treated for 30 minutes with AMD3100 (10 µM), peptide S (10 µM), peptide R (10 µM), peptide I (10 µM) and animals were treated IP daily for 15 days with 2.5 mg/kg for AMD3100 group and 10 mg/kg for each peptide groups. A week later the mice were sacrificed. Xenograft tumor growth was evaluated using pEGFP-SN12C cells in exponential growth phase subcutaneously injected into the right flank of twenty-five 6-8-week-old female CD1 nude mice. 2×10^6 SN12C-pEGFP were injected in the right flank of each mouse and treated with AMD3100 (1.25 mg/kg) and peptides (2 mg/kg) for 10 days ip. A week later mice were euthanized and tumor volume evaluated through Leica MacroFluo fluorescence stereomicroscope (Leica microsystem, Houston, TX). The experiment was repeated three times. The Istituto Nazionale per lo Studio e la Cura dei Tumori, Fondazione Giovanni Pascale Independent Etical Comettee approved the study (CEI/600/12).
Figure 4 Peptides R, I and S inhibit murine osteosarcoma lung metastases. (A) Twenty-five 6-8-week-old female Balb/c mice were injected via tail vein with 2.5×10^5 K7M2 cells pre-treated for 30 minutes with AMD3100 (10 µM), peptide R (10 µM), or peptide I (10 µM) or peptide S (10 µM). […]

[3] = tested on: B16-CXCR4 murine melanoma cells; experiment: B16-CXCR4 melanoma lung metastases model; format: in vivo, C57BL/6 mice; details: cells pre-treated 30 min with 10 µM, IP once a day for 10 days, peptides 2 mg/kg, AMD3100 1.25 mg/kg; for number of lung metastases: control 8.4±3.49, average
Procedure: as §3
(A) B16-CXCR4 tumor cells pre-treated for 30 minutes with AMD3100 (10 µM), peptide R (10 µM), peptide I (10 µM), or peptide S (10 µM) were inoculated into the tail vein of C57/B female mice and the mice were further treated intraperitoneally for 10 days with 1.25 mg/kg AMD3100, or 2 mg/kg peptide R, peptide I or peptide S. Gross examination of representative lungs; (B) Graphical representation of the number of lung metastases in treated mice. Double tailed T-Test was used for statistical analyses. The experiments were repeated three times.

[4] = tested on: PES43 human melanoma cells; experiment: CXCL12-mediated wound closure assay; format: cell-based; details: 6 hours post-wounding
Procedure: as §2, §1

Substance: Arg-Ala-[Cys-Arg-His-Trp-Cys] (RACRHWC; disulfide 3-7) [Peptide S, CXCL12-mimetic disulfide-cyclic peptide]
- CXCL12-mediated p-ERK induction (P-ERK1/2): reduced
- CXCL12-induced SN12C-GFP migration [1]: inhibited
- K7M2 lung metastases [2]: reduced lung metastases
- number of lung metastases [3]: 2.96±2.39
- CXCL12-mediated wound healing [4]: delayed

Substance: Arg-Ala-[Cys-Arg-Phe-Phe-Cys] (RACRFFC; disulfide 3-7) [Peptide R, CXCL12-mimetic disulfide-cyclic peptide]
- CXCL12-mediated p-ERK induction (P-ERK1/2): reduced
- CXCL12-induced SN12C-GFP migration [1]: inhibited
- K7M2 lung metastases [2]: reduced lung metastases
- fold reduction of the number of lung metastases vs control [3]: 7 fold
- number of lung metastases [3]: 1.2±1.4
- CXCL12-mediated wound healing [4]: delayed

Substance: [Cys-Trp-His-Arg-Cys] (CWHRC; disulfide 1-5) [Peptide I, v-MIP-II mimetic disulfide-cyclic peptide]
- CXCL12-mediated p-ERK induction (P-ERK1/2): reduced
- CXCL12-induced SN12C-GFP migration [1]: inhibited
- K7M2 lung metastases [2]: reduced lung metastases
- fold reduction of the number of lung metastases vs control [3]: 41.5 fold
- number of lung metastases [3]: 0.2±0.44
- CXCL12-mediated wound healing [4]: delayed
